Here are results for 23 molecules from patent US20260248763A1 (BIO GENUINE (SHANGHAI) BIOTECH CO., LTD, priority 2023, published 2026).

Each structure is given as a SMILES string.

In experiment [1] the target is T1, OTR (Homo sapiens, UniProt P30559).
T1 construct: expressed in transfected cells; host or cells: OTR/HEK293 stably transfected cell line
T1 sequence (P30559 1-389): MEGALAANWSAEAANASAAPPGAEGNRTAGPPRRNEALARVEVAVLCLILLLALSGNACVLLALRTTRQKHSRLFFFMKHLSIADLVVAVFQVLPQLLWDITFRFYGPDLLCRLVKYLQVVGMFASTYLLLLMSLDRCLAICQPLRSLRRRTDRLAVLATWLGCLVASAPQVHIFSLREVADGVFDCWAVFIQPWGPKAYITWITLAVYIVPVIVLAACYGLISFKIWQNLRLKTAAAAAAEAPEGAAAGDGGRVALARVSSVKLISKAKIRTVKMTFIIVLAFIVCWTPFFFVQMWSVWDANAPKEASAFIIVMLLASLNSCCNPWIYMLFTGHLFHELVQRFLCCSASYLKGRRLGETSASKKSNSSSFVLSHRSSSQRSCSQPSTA
Briefly: Ca2+ mobilization in cells stably expressing OTR (FLIPR, antagonist mode). The format is cell-based. To be noted: OTR/HEK293 stably transfected cell line. In a few lines:
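OTR/HEK293 stable cells (20,000 per well) were loaded with Fluo-4 Direct plus probenecid. Cells were pre-exposed to 10-point, 3-fold compound dilutions before agonist challenge at EC80, determined beforehand per cell line. FLIPR calcium fluorescence (Max-Min) was fitted in Prism.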
For orientation: Calcium flux is commonly read through the fluorescence of an indicator in the cells.

The target of experiment [2] is T2, V1aR (Homo sapiens, UniProt P37288).
T2 construct: expressed in transfected cells; host or cells: V1a-CHO stably transfected cell line
T2 sequence (P37288 whole entry, species assumed): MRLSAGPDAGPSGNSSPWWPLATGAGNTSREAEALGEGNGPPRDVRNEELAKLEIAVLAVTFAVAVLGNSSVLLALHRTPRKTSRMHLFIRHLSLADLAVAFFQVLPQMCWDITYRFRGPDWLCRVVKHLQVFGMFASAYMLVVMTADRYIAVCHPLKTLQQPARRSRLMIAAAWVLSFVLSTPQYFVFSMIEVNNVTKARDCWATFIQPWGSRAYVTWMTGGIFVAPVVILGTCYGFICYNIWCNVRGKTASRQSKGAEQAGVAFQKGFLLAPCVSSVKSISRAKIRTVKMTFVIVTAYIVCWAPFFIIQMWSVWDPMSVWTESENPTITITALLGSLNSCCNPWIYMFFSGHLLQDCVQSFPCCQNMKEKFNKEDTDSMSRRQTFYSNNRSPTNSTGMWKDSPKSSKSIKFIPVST
Briefly: Ca2+ mobilization in cells stably expressing V1aR (FLIPR, antagonist mode). In kind it is cell-based. To be noted: V1a-CHO stably transfected cell line. The source says: Test Example 2. Determination of the Effect of the Compound of the Present Disclosure on Ca^2+ Mobilization in Cells Stably Expressing V1aR
To measure the antagonistic effect of the compound of the present disclosure on V1aR activity expressed in the V1a-CHO stably transfected cell line.
• F-12 (Hyclone, SH30026.01) • FLIPR CALCIUM 6 ASSAY KIT (Molecul Device, R8191) • Fetal Bovine Serum (FBS) (AusGeneX, FBS500-S) • Hygromycin B (Solarbio, H8080-1g) • DMSO (Sigma, D4540) • HBSS (Gibco 14025-092) • Probenecid (MCE, HY—B0545) • 0.36 mL 96 Round V-bottom Deep Well Plates for Laboratory (Biaosen P-0.36-BSA-96) • 384-well conical bottom polypropylene plate (Nunc, 264573) • Corning® 384-well Flat Clear Bottom Black Polystyrene TC-treated Microplates (Corning 3764)
• Biological safety cabinet (ECSO, AC2-6S1-TC) • Carbon dioxide cell incubator (ECSO, CCI-170B-8) • Inverted microscope (Olympus, CKX53) • Microplate low-speed centrifuge (Xiangzhi, TD5B) • FLIPR® Penta (Molecul Device, 5.0)
• 1. Cell plating: V1a-CHO cells were digested and harvested, resuspended and counted, and then inoculated into a 384-well cell plate at a density of: 1.2×10^4 cells/25 μL/well. The cell plate was then incubated in an incubator at 37° C. with 5% CO2 for about 16-20 h. • 2. The next day: after preparing Assay Buffer, 20× Component A was thawed to room temperature, diluted with Assay buffer to 1× loading buffer, and placed at room temperature for later use. • 3. The medium was removed from the cell plate, and 40 μL of 1× loading buffer was quickly added to each well. After centrifugation, the cell plate was incubated at 37° C. in the dark for 120 minutes. • 4. The serially diluted positive compound, serially diluted test compound, and agonist working solution were formulated. After mixing the serially diluted positive compound/serially diluted test compound with the agonist at a 1:1 ratio, 20 μL per well was transferred to a 384-well compound source plate. • 5. The cell plate, agonist source plate, and pipette tips were placed into their respective positions in the FLIPR instrument. Using FLIPR Tetra, 10 μL of the diluted agonist from Step 4 was added to each test well, and the data were collected at a wavelength of 515 nm-575 nm. • 6. The signal values were plotted against the compound concentrations, and the curve fitting and IC50 calculation were performed using the nonlinear regression method of GraphPad Prism software.

Consider `CO/N=C1/C[C@@H](C(C)O)N(C(=O)c2ccc(-c3ccccc3C)cc2)C1` (mixture of isomers) [Example C0067, (S, Z, RS)-(2-(1-Hydroxyethyl)-4-(methoxyimino)pyrrolidin-1-yl)(2′-methyl-[1,1′-biphenyl]-4-yl)methanone], for which the concentration for half-maximal inhibition (IC50) (in general, the concentration needed to halve the response being measured) amounted to 13 nM in experiment [1] and 223 nM in experiment [2].
For `CON=C1CC(CO)N(C(=O)c2ccc(-c3cccc(C#N)c3C)c3c2OCO3)C1` (single isomer, unassigned) [Example C0098] the same measures were 55.9 nM and 13200 nM.
For `CO/N=C1/C[C@@H]([C@H](C)O)N(C(=O)c2ccc(-c3cccc(C#N)c3C)cc2)C1` (single isomer, unassigned) [Example C0111] the same measures were 12.6 nM and 2350 nM.
For `CO/N=C1\C[C@@H]([C@@H](C)O)N(C(=O)c2ccc(-c3cccc(C#N)c3C)cc2)C1` (single isomer, unassigned) [Example C0113], the IC50 was 55.3 nM in experiment [1] and 1560 nM in experiment [2].
Consider `CO/N=C1/C[C@@H](CO)N(C(=O)c2cnc(-c3cccc(C)c3C)cn2)C1` [Example A0061, (S, Z)-(5-(2,3-Dimethylphenyl)pyrazin-2-yl)(2-(hydroxymethyl)-4-(methoxyimino)pyrrolidin-1-yl)methanone], for which the IC50 in experiment [1] turned out to be 99.8 nM; in experiment [2], 2390 nM.
For `CO/N=C1/C[C@@H](CO)N(C(=O)c2ccc(-c3cccc(C)c3C)c(C(F)F)c2)C1` [Example A0134, (S,Z)-(2-(Difluoromethyl)-2′, 3′-dimethyl-[1,1′-biphenyl]-4-yl)(2-(hydroxymethyl)-4-(methoxyimino)pyrrolidin-1-yl)methanone] the same measures were 13.1 nM and 5820 nM.
In the same order, the values of `CO/N=C1/C[C@@H](CO)N(C(=O)c2ccc(-c3cccc(C)c3C)c(OCCO)c2)C1` [Example A0148, (S, Z)-(2-(2-Hydroxyethoxy)-2′,3′-dimethyl-[1,1′-biphenyl]-4-yl)(2-(hydroxymethyl)-4-(methoxyimino)pyrrolidin-1-yl)methanone] are 34.4 nM and 732 nM.
For `CO/N=C1/C[C@@H](CO)N(C(=O)c2ccc(-c3cccc(C)c3C)c(C(=O)NC3COC3)c2)C1` [Example A0157, (S, Z)-4-(2-(Hydroxymethyl)-4-(methoxyimino)pyrrolidine-1-carbonyl)-2′, 3′-dimethyl-N-(oxetan-3-yl)-[1,1′-biphenyl]-2-carboxamide] the same measures were 119 nM and 6740 nM.
Consider `CO/N=C1/C[C@@H](CO)N(C(=O)c2ccc(-c3cccc(C#N)c3C)c3c2OCCN3C)C1` [Example A0162], for which the half-maximal inhibitory concentration (IC50) came out at 31.5 nM in experiment [1] and 587 nM in experiment [2].
In the same order, the values of `CO/N=C1/C[C@@H](CO)N(C(=O)c2ccc(-c3cccc(C#N)c3C)c3c2cnn3C)C1` [Example A0167, 3-(4-[(2S,4Z)-2-(Hydroxymethyl)-4-(methoxyimino)pyrrolidine-1-carbonyl]-1-methyl-1H-indazol-7-yl)-2-methylbenzonitrile] are 49.8 nM and 1480 nM.
For `CO/N=C1/C[C@@H](CO)N(C(=O)c2ccc(-c3cccc(C#N)c3C)c(C#N)c2)C1` [Example A0173, 2-(3-Cyano-2-methylphenyl)-5-[(2S, 4Z)-2-(hydroxymethyl)-4-(methoxyimino)pyrrolidine-1-carbonyl]benzonitrile] the same measures were 36.1 nM and 8770 nM.
In the same order, the values of `COCCOc1cc(C(=O)N2C/C(=N\OC)C[C@H]2CO)ccc1-c1cccc(C#N)c1C` [Example A0191, (S, Z)-4′-(2-(Hydroxymethyl)-4-(methoxyimino)pyrrolidine-1-carbonyl)-2′-(2-methoxyethoxy)-2-methyl-[1, 1′-biphenyl]-3-carbonitrile] are 16.8 nM and 1020 nM.
As for `CO/N=C1/C[C@@H](CO)N(C(=O)c2ccc(-c3cccc(C#N)c3C)c(OC)n2)C1` [Example A0215, 3-(6-[(2S, 4Z)-2-(Hydroxymethyl)-4-(methoxyimino)pyrrolidine-1-carbonyl]-2-methoxypyridin-3-yl)-2-methylbenzonitrile], the IC50 in experiment [1] turned out to be 58.7 nM; in experiment [2] it was 11200 nM.
For the molecule `CO/N=C1/C[C@@H](CO)N(C(=O)c2ccc(-c3cccc(C#N)c3C)c3c2OCCCO3)C1` [Example A0235, (S,Z)-3-(9-(2-(Hydroxymethyl)-4-(methoxyimino)pyrrolidine-1-carbonyl)-3,4-dihydro-2H-benzo[b][1,4]dioxepin-6-yl)-2-methylbenzonitrile], the IC50 in experiment [1] was 23.2 nM; in experiment [2] it was 1360 nM.
For `CO/N=C1/C[C@@H](CO)N(C(=O)c2ccc(-c3cccc(C#N)c3C)cc2C)C1` [Example A0241, 3-(4-[(2S,4Z)-2-(Hydroxymethyl)-4-(methoxyimino)pyrrolidine-1-carbonyl]-3-methylphenyl)-2-methylbenzonitrile] the same measures were 20.3 nM and 6130 nM.
For `CO/N=C1/C[C@@H](CO)N(C(=O)c2ccc(-c3cccc(C#N)c3C)c(OC)c2)C1` [Example A0242, (S,Z)-4′-(2-(Hydroxymethyl)-4-(methoxyimino)pyrrolidine-1-carbonyl)-2′-methoxy-2-methyl-[1,1′-biphenyl]-3-carbonitrile] the same measures were 10.8 nM and 1550 nM.
For `CO/N=C1/C[C@@H](CO)N(C(=O)c2ccc(-c3cccc(C#N)c3C)cc2OC)C1` [Example A0243] the same measures were 34.1 nM and 7360 nM.
Regarding `CO/N=C1/C[C@@H](CO)N(C(=O)c2ccc(-c3cccc(C#N)c3C)c(Cl)c2)C1` [Example A0246, 3-(2-Chloro-4-[(2S,4Z)-2-(hydroxymethyl)-4-(methoxyimino)pyrrolidine-1-carbonyl]phenyl)-2-methylbenzonitrile], the figures for the IC50 in experiment [1] and in experiment [2] were 24.1 nM and 1850 nM, respectively.
In the same order, the values of `CO/N=C1\CN(C(=O)c2ccc(-c3ccccc3C)cc2)[C@](C)(CO)C1` [Example C0021, (S, Z)-(2-(Hydroxymethyl)-4-(methoxyimino)-2-methylpyrrolidin-1-yl)(2′-methyl-[1,1′-biphenyl]-4-yl)methanone] are 74 nM and 862 nM.
For `CO/N=C1\C[C@@H](CO)N(C(=O)c2ccc(-c3cccc(C)c3C)cc2)C1` [Example C0035, (S,E)-(2′,3′-Dimethyl-[1,1′-biphenyl]-4-yl)(2-(hydroxymethyl)-4-(methoxyimino)pyrrolidin-1-yl)methanone] the same measures were 81.2 nM and 661 nM.
Turning to `CO/N=C1\C[C@@H](CO)N(C(=O)c2ccc(-c3ccc(F)c(C#N)c3C)c3c2OCCO3)C1` [Example C0148, (S,E)-6-Fluoro-3-(8-(2-(hydroxymethyl)-4-(methoxyimino)pyrrolidine-1-carbonyl)-2,3-dihydrobenzo[b][1,4]dioxin-5-yl)-2-methylbenzonitrile], it took 158 nM to reach half-maximal inhibition in experiment [1] (IC50).
The same measure, in the same setting: the figure for `CO/N=C1\C[C@@H](CO)N(C(=O)c2ccc(-c3cccc(C#N)c3C)cc2F)C1` [Example C0156, (S,E)-3′-Fluoro-4′-(2-(hydroxymethyl)-4-(methoxyimino)pyrrolidine-1-carbonyl)-2-methyl-[1,1′-biphenyl]-3-carbonitrile] is 73.6 nM; for `CO/N=C1\C[C@@H](C(C)(C)O)N(C(=O)c2ccc(-c3cccc(C#N)c3C)cc2)C1` [Example C0163, (S,E)-4′-(2-(2-Hydroxypropan-2-yl)-4-(methoxyimino)pyrrolidine-1-carbonyl)-2-methyl-[1,1′-biphenyl]-3-carbonitrile] it is 72 nM.
